The text below walks through data of patent US20080199899A1, “Method For Screening Modulators of Mitochondrial Functioning and New Modulators Obtained” (priority 2002, published 2008).

Positions of bridges follow the written chain, without caps; N, C: chain ends. No end group written: not given here.

The subject of test [1] is Human umbilical vein endothelial cells (HUVEC). Kind of test: Apoptosis of HUVEC by FACS analysis after 7AAD staining. The format is cell-based. The settings on record: 5 to 30 μM, 24 to 96 h; FIG. 13. The method, then:
Human umbilical vein endothelial cells were treated with Seq.
HUVEC cells were incubated for 24 to 96 h with 5 or 30 μM of peptide Seq. ID n 5, control peptide, or left untreated. Apoptosis was characterized by FACS analysis after 7AAD staining. A. Dose-response versus control peptide. B. Increasing incubation times with or without 10 μM peptides and staining with 7AAD and detection by FACS analysis.
In general terms: Flow cytometry measures light scatter and fluorescence of single cells or particles in a stream.

In test [2] the test system is HeLa cells. As to the kind of experiment: Apoptosis of HeLa cells by fluorescent microscopy or FACS. The format is cell-based, human. To be noted: 5 or 10 μM, 24 or 48 h. As for the experimental part:
Characterization of apoptosis induced on cultured human cells by treatment with MMP inducing peptides. The example shown relates to peptide seq. ID no 3 […]. […] The peptide was then tested on cell: the HeLa cells in exponential growth phase were treated with peptide or mock treated, then analyzed by fluorescent microscopy or FACS to ascertain apoptosis.
Caspase-3 activation was performed using a fluorescent inhibitor of caspase-3 (FLICA, FAM-DEVD-FMK) from the CaspaTag™ kit (Intergen). The loss of plasma membrane integrity occurring during apoptosis of HeLa cells was determined by 7-Amino Actinomycin D. (7-AAD) incorporation (SIGMA). […] 7-AAD was added to cells at 37° C. for 15 min. Cells were trypsinized, resuspended in PBS and immediately acquired on the FACSCalibur. FAM-DEVD-FMK related fluorescence was detected using the Fl-1 channel. 7-AAD fluorescence was collected in the Fl-3 channel (>650 nm).
HeLa cells were stained by […] for 15 minutes and observe d using a DM IRB inverted fluorescence microscope (Leica).
HeLa cells were incubated for 24 or 48 h with 5 or 10 μM of peptide Seq. ID no 3 or left untreated. A. Cells were then stained with JC-1 and Hoechst dyes. […] B. Fluorescence microscopy of the cells, after 24 hours incubation with or without 5 μM peptide and staining with JC-1 dye. […]

Test [3] concerns isolated mitochondria. As to the kind of experiment: Cytochrome C release from isolated mitochondria by western blot on the supernatant. The format is biochemical, mouse. The settings on record: 10 μM peptide, 30 minutes; FIG. 9B. The method, then: B. Cytochrome C release: untreated mitochondria (1), or treated with 5 μM Alamethicin (2) or 10 μM peptide seq. ID No 2 during 30 minutes were assayed for cytochrome C release by western blot on the supernatant.
(In general: Immunoblotting shows a protein as a band on a membrane.)

The subject of test [4] is purified mouse liver mitochondria. The format is biochemical. To be noted: FIG. 9A. As for the experimental part:
Liver mitochondria were isolated from 3-4 weeks old Balb-c mice (IFFA CREDO, Saint Germain sur l'Arbresle, France). Animals were fasted overnight before being killed by […] dislocation. Liver mitochondria were prepared as described (Jacotot, 2000). All steps were carried out at 4° C. Finally, the organelles were resuspended in ‘swelling buffer’, composed by 200 mM sucrose, 5 mM succinate, 10 mM Tris-MOPS (pH 7.4), 1 mM H3PO4, 2 μM Rotenone, and 10 μM EGTA at pH=7.4. Spectrophotometric and flow cytometric analyses were performed in this buffer. The protein content of isolated mitochondria was determined by the Bradford assay.
Large amplitude swelling was determined with Ultrospec 3300 pro […] (Amersham Pharmacia Bioech, Cambridge, England) by measuring Absorbance at 545 nm (A545) (Bernardi et al., 1992). […] Basal absorbance was recorded for 4 minutes, MPP-inducing reagents were added to samples and large amplitude swelling was monitored by the decrease in absorbance for the following 16 minutes. Data were recorded using the Data capture software (Excel, Uppsala, Sweden). […] Percentages of specific swelling were calculated as follows: (ACa2+−AReagent)×100/(ACa2+−Ainit) were ACa2+, AReagent and Ainit correspond to the absorbance value obtained for CaCl2-treated, reagent-treated and pre-treated mitochondria respectively.

Consider “GG*CRGDMFG*CGGLLFIHFRIGSRHSRIG (GGCRGDMFGCGGLLFIHFRIGSRHSRIG; disulfide 3-10) [SEQ ID N^o 5]”, for which the “apoptosis of HUVEC (in words)” value in test [1] is listed as “apoptosis induction”.
As to “RKKRRQRRRCGGLETRTETWMSSEGAWKQIQKVETWALRH [SEQ ID N^o 3]”, the “apoptosis of HeLa cells (in words)” value in test [2] is “induction of apoptosis in a dose and time related effect”. Besides, the “release of Cytochrome C from isolated mitochondria” value in test [3] is “release of Cytochrome C”. In addition, the “specific swelling of isolated mitochondria (in words)” value in test [4] is on record as “dose-dependant specific swelling”.
